Measured values as given in patent publication US12662491B2 (Redona Therapeutics, Inc., priority 2020, dated 2026).
pIC50: −log10 of the molar value. Where two headings read alike, the source gives them in different places.

Biological target: T1, Zcchc11 enzyme (Homo sapiens, UniProt Q5TAX3)
T1 construct: made in house; host or cells: HEK293 cells (Zcchc11); E. coli Rosetta II (LIN28A)
T1 sequence (Q5TAX3 212-1420): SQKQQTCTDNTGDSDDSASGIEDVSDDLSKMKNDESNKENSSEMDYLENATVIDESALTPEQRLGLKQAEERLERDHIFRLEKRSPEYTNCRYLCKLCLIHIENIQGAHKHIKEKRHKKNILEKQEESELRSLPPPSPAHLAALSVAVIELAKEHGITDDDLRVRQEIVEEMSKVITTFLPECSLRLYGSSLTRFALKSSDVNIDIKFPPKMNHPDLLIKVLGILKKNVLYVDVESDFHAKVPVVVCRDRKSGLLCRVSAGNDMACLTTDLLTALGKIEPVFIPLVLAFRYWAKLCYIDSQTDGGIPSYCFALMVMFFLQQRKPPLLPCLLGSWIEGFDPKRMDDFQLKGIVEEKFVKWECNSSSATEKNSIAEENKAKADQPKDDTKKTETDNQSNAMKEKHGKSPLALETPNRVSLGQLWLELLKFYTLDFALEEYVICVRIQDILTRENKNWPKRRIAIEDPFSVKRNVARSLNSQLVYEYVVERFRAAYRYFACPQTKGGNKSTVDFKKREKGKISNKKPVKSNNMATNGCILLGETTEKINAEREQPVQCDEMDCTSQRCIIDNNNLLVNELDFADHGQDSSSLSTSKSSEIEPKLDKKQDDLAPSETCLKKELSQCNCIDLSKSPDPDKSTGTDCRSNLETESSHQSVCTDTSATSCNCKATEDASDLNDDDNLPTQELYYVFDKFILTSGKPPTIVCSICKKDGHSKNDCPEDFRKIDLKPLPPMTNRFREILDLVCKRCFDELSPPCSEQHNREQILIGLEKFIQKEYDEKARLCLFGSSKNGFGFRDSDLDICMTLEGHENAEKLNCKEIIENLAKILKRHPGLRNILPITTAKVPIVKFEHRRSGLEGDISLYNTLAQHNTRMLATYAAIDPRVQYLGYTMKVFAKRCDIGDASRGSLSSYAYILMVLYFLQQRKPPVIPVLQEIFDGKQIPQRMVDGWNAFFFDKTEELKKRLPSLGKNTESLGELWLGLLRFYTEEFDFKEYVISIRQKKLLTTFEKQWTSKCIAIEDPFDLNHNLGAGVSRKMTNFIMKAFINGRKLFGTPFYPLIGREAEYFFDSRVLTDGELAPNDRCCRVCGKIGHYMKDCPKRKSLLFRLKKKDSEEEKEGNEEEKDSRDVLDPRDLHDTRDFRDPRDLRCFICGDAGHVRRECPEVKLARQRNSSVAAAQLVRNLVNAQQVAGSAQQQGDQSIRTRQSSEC
Experiment: TUTase assay (Zcchc11 assay, Lin28a-dependent polyuridylation of pre-let-7)
Type: biochemical
Settings: read-out: Potency Lin28a-dep Z11 IC50
In short: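 Potency is measured as inhibition of LIN28A-driven U-tail addition to 2 nM pre-let-7 by 0.2 nM HEK293-derived Zcchc11 fragment with 5 uM UTP at room temperature. Tail growth appears as fluorescein quenching by an annealing rhodamine-A20 probe.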

[1] = LIN28A 10 nM, Zcchc11 0.2 nM, 5′-fluorescein pre-let-7 miRNA 2 nM, UTP 5 uM, room temperature, 30 minutes pre-incubation
[2] = Lin28a-dependent Zcchc11 (Z11) TUTase activity
[3] = Lin28a-dependent Zcchc11 (Z11) TUTase assay

Row | Compound | pIC50 [2] | pIC50 [3] | further results
1 | COc1ccc(Cl)c(OCC2C3CC(C3)N2c2cc3c(cc2Cl)c(=O)c(C(=O)O)cn3-c2ccc(N3CC(N(C)C)C3)nc2)n1 (stereo not shown) [Example 64, 6-chloro-7-(3-(((3-chloro-6-methoxypyridin-2-yl)oxy)methyl)-2-azabicyclo[2.1.1]hexan-2-yl)-1-(6-(3-(dimethylamino)azetidin-1-yl)pyridin-3-yl)-4-oxo-1,4-dihydroquinoline-3-carboxylic acid] | – | – | pIC50 [1]: ≥ 6.00
2 | Cn1cc(-n2cc(C(=O)O)c(=O)c3cc(C#N)c(N4CCC[C@@H]4COc4ncccc4F)nc32)cn1 (racemic) [Compound 183, rac-(R)-6-cyano-7-(2-(((3-fluoropyridin-2-yl)oxy)methyl)pyrrolidin-1-yl)-1-(1-methyl-1H-pyrazol-4-yl)-4-oxo-1,4-dihydro-1,8-naphthyridine-3-carboxylic acid] | 5.00 to 6.00 | – | –
3 | Cc1cccnc1OC[C@H]1CCCN1c1cc2c(cc1F)c(=O)c(C(=O)O)cn2-c1ccc(OCCN(C)C)cc1 [Example 17, (R)-1-(4-(2-(dimethylamino)ethoxy)phenyl)-6-fluoro-7-(2-(((3-methylpyridin-2-yl)oxy)methyl)pyrrolidin-1-yl)-4-oxo-1,4-dihydroquinoline-3-carboxylic acid] | – | – | pIC50 [1]: ≥ 6.00
4 | CN(C)C1CN(c2ccc(-n3cc(C(=O)O)c(=O)c4cc(Cl)c(N5CCC6CC65COc5ncccc5Cl)cc43)cn2)C1 (stereo not shown) [Example 635, 6-chloro-7-(1-(((3-chloropyridin-2-yl)oxy)methyl)-2-azabicyclo[3.1.0]hexan-2-yl)-1-(6-(3-(dimethylamino)azetidin-1-yl)pyridin-3-yl)-4-oxo-1,4-dihydroquinoline-3-carboxylic acid] | – | ≥ 6.00 | –
5 | Cc1cccnc1OC[C@H]1CCCN1c1cc2c(cc1F)c(=O)c(C(=O)O)cn2-c1ccc2[nH]c(=O)[nH]c2c1 [Example 443, (R)-6-fluoro-7-(2-(((3-methylpyridin-2-yl)oxy)methyl)pyrrolidin-1-yl)-4-oxo-1-(2-oxo-2,3-dihydro-1H-benzo[d]imidazol-5-yl)-1,4-dihydroquinoline-3-carboxylic acid] | – | ≥ 6.00 | –
6 | O=C(O)c1cn(-c2cnc3cc[nH]c3n2)c2cc(N3CCC[C@@H]3COc3ncccc3Cl)c(Cl)cc2c1=O [Example 530, (R)-6-chloro-7-(2-(((3-chloropyridin-2-yl)oxy)methyl)pyrrolidin-1-yl)-4-oxo-1-(5H-pyrrolo[2,3-b]pyrazin-3-yl)-1,4-dihydroquinoline-3-carboxylic acid] | – | ≥ 6.00 | –
7 | COc1ccc(COc2ccc(-n3cc(C(=O)O)c(=O)c4cc(F)c(N5CCC[C@@H]5COc5ncccn5)cc43)c(F)c2)cc1 [Compound 137, (R)-6-fluoro-1-(2-fluoro-4-((4-methoxy-benzyl)oxy)phenyl)-4-oxo-7-(2-((pyrimidin-2-yloxy)methyl)pyrrolidin-1-yl)-1,4-dihydro-quinoline-3-carboxylic acid] | ≥ 6.00 | – | –
8 | CN(C)C1CN(c2ccc(-n3cc(C(=O)O)c(=O)c4cc(F)c(N5CCC[C@@H]5COc5cc(OCc6ccccc6)ccn5)c(F)c43)cn2)C1 [Example 612, (R)-7-(2-(((4-(benzyloxy)pyridin-2-yl)oxy)methyl)pyrrolidin-1-yl)-1-(6-(3-(dimethylamino)azetidin-1-yl)pyridin-3-yl)-6,8 difluoro-4-oxo-1,4-dihydroquinoline-3-carboxylic acid] | – | ≥ 6.00 | –
9 | CC1(n2cc(C(=O)O)c(=O)c3cc(F)c(N4CCC[C@@H]4COc4ccccn4)cc32)CCC1 [Example 363, (R)-6-fluoro-1-(1-methylcyclo-butyl)-4-oxo-7-(2-((pyridin-2-yloxy)methyl)pyrrolidin-1-yl)-1,4-dihydro-quinoline-3-carboxylic acid] | – | 5.00 to 6.00 | –
10 | CN(C)C1CN(c2ccc(-n3cc(C(=O)O)c(=O)c4cc(C#N)c(N5CCC[C@@H]5COc5ncccc5Cl)nc43)cn2)C1 [Compound 250, 7-[(2R)-2-[[(3-chloropyridin-2-yl)oxy]methyl]pyrrolidin-1-yl]-6-cyano-1-[6-[3-(dimethyl-amino)azetidin-1-yl]pyridin-3-yl]-4-oxo-1,8-naphthyridine-3-carboxylic acid] | ≥ 6.00 | – | –
11 | CS(=O)(=O)Nc1ccc(-n2cc(C(=O)O)c(=O)c3cc(Cl)c(N4CCC[C@@H]4COc4ncccc4Cl)cc32)cn1 [Example 26, 6-chloro-7-[(2R)-2-{[(3-chloropyridin-2-yl)oxy]methyl}pyrrolidin-1-yl]-1-(6-methanesulfonamidopyridin-3-yl)-4-oxo-1,4-dihydroquinoline-3-carboxylic acid] | – | – | pIC50 [1]: ≥ 6.00
12 | O=C(O)c1cn(-c2ccc(F)c(F)c2)c2cc(N3CCC[C@@H]3COc3ccccn3)c(F)cc2c1=O [Example 379, (R)-1-(3,4-difluorophenyl)-6-fluoro-4-oxo-7-(2-((pyridin-2-yloxy)methyl)pyrrolidin-1-yl)-1,4-dihydroquinoline-3-carboxylic acid] | – | 5.00 to 6.00 | –
13 | COCCN(C)c1ccc(-n2cc(C(=O)O)c(=O)c3cc(Cl)c(N4CCC[C@@H]4COc4ncccc4Cl)cc32)cn1 [Example 420, (R)-6-chloro-7-(2-(((3-chloropyridin-2-yl)oxy)methyl)pyrrolidin-1-yl)-1-(6-((2-methoxy-ethyl)(methyl)amino)pyridin-3-yl)-4-oxo-1,4-dihydroquinoline-3-carboxylic acid] | – | ≥ 6.00 | –
14 | COCCN(C)C1CN(c2ccc(-n3cc(C(=O)O)c(=O)c4cc(F)c(N5CCC[C@@H]5COc5ncccc5Cl)cc43)cn2)C1 [Compound 278, (R)-7-(2-(((3-chloropyridin-2-yl)oxy)methyl)pyrrolidin-1-yl)-6-fluoro-1-(6-(3-((2-methoxyethyl) (methyl)amino)azetidin-1-yl)pyridin-3-yl)-4-oxo-1,4-dihydro-quinoline-3-carboxylic acid] | ≥ 6.00 | – | –
15 | rac-6- chloro-7- ((2R,3S)-2- (((3- chloropyridin- 2- yl)oxy) methyl)-3- methyl- pyrrolidin-1- yl)-1-(6-(3- (dimethyl- amino) azetidin-1- yl)pyridin- 3-yl)-4- oxo-1,4- dihydro- quinoline-3- carboxylic acic [Compound 260] | ≥ 6.00 | – | –
16 | Nc1ccc(-n2cc(C(=O)O)c(=O)c3cc(Cl)c(N4CC(c5ccccn5)C[C@@H]4COc4ncccc4Cl)cc32)cn1 (mixture of isomers) [Compound 180, rac-1-(6-aminopyridin-3-yl)-6-chloro-7-((2R)-2-(((3-chloropyridin-2-yl)oxy)methyl)-4-(pyridin-2-yl)pyrrolidin-1-yl)-4-oxo-1,4-dihydro-quinoline-3-carboxylic acid] | ≥ 6.00 | – | –
17 | O=C(O)c1cn(-c2ccc(O)cc2F)c2cc(N3CCC[C@@H]3COc3ccccn3)c(F)cc2c1=O [Example 381, (R)-6-fluoro-1-(2-fluoro-4-hydroxyphenyl)-4-oxo-7-(2-((pyridin-2-yloxy)methyl)pyrrolidin-1-yl)-1,4-dihydroquinoline-3-carboxylic acid] | – | 5.00 to 6.00 | –
18 | CC1(n2cc(C(=O)O)c(=O)c3cc(Cl)c(N4CCC[C@@H]4COc4ncccc4Cl)c(F)c32)CC1 [Example 9, (R)-6-chloro-7-(2-(((3-chloropyridin-2-yl)oxy)methyl)pyrrolidin-1-yl)-8-fluoro-1-(1-methylcyclopropyl)-4-oxo-1,4-dihydroquinoline-3-carboxylic acid] | – | – | pIC50 [1]: 5.00 to 6.00
19 | O=C(O)c1cn(-c2ccccc2)c2cc(N3CCC[C@@H]3COc3ccccc3)c(F)cc2c1=O [Example 4, (R)-6-fluoro-4-oxo-7-(2-(phenoxymethyl)pyrrolidin-1-yl)-1-phenyl-1,4-dihydroquinoline-3-carboxylic acid] | – | – | pIC50 [1]: < 4.30
